Data from BigSolDB 2.1.

CC(=O)c1ccc2ccccc2c1O
Conditions	solubility (mole fraction)
in cyclohexane, 292.4 K	0.0076
in cyclohexane, 296.55 K	0.0092
in cyclohexane, 300.65 K	0.0114
in cyclohexane, 304.9 K	0.014
in cyclohexane, 308.6 K	0.0173
in cyclohexane, 313.55 K	0.0222
in cyclohexane, 318.5 K	0.0285
in cyclohexane, 324.75 K	0.0382
in cyclohexane, 329.65 K	0.0511
in cyclohexane, 333.95 K	0.0679
in cyclohexane, 337.6 K	0.0872
in cyclohexane, 340.65 K	0.109
in ethanol, 289.15 K	0.0049
in ethanol, 292.6 K	0.0055
in ethanol, 296.25 K	0.0064
in ethanol, 299.95 K	0.0075
in ethanol, 304.55 K	0.0089
in ethanol, 307.95 K	0.0104
in ethanol, 310.55 K	0.0117
in ethanol, 312.9 K	0.013
in ethanol, 316.4 K	0.015
in ethanol, 319.6 K	0.0174
in ethanol, 323.4 K	0.0207
in ethanol, 327.35 K	0.025
in ethanol, 331.2 K	0.0313
in ethanol, 334.95 K	0.0399
in ethanol, 338.65 K	0.052
in ethanol, 342.25 K	0.0696
in n-butanol, 280.85 K	0.0054
in n-butanol, 285.65 K	0.0065
in n-butanol, 291.55 K	0.0084
in n-butanol, 295.65 K	0.0101
in n-butanol, 299.45 K	0.012
in n-butanol, 303.75 K	0.0144
in n-butanol, 308.25 K	0.0179
in n-butanol, 312.75 K	0.0219
in n-butanol, 318.65 K	0.0291
in n-butanol, 325.85 K	0.0431
in n-butanol, 328.95 K	0.0523
in n-butanol, 332.65 K	0.0648
in n-butanol, 335.75 K	0.0788
in n-butanol, 336.45 K	0.0831
in n-heptane, 290.65 K	0.008
in n-heptane, 295.25 K	0.0099
in n-heptane, 299.9 K	0.0123
in n-heptane, 304.65 K	0.0153
in n-heptane, 310.15 K	0.019
in n-heptane, 315.4 K	0.0239
in n-heptane, 321.65 K	0.0306
in n-heptane, 327.2 K	0.0395
in n-heptane, 332.65 K	0.05
in n-heptane, 338.55 K	0.0627
in n-heptane, 344.35 K	0.0898
in n-heptane, 348.35 K	0.116
in n-hexane, 281.65 K	0.0045
in n-hexane, 286.55 K	0.0056
in n-hexane, 289.75 K	0.0065
in n-hexane, 293.45 K	0.0077
in n-hexane, 297.35 K	0.0091
in n-hexane, 301.95 K	0.0107
in n-hexane, 305.45 K	0.0129
in n-hexane, 309.95 K	0.0156
in n-hexane, 314.25 K	0.0189
in n-hexane, 319.55 K	0.0236
in n-hexane, 324.05 K	0.0288

CC(=O)c1c(O)ccc2ccccc12
Conditions	solubility (mole fraction)
in cyclohexane, 292.9 K	0.0181
in cyclohexane, 296.6 K	0.0229
in cyclohexane, 300.7 K	0.0292
in cyclohexane, 304.8 K	0.0379
in cyclohexane, 308.85 K	0.0505
in cyclohexane, 312.6 K	0.068
in cyclohexane, 316.25 K	0.0957
in cyclohexane, 318.95 K	0.132
in cyclohexane, 320.35 K	0.162
in cyclohexane, 321.85 K	0.19
in ethanol, 285.7 K	0.0615
in ethanol, 288.9 K	0.0712
in ethanol, 293.05 K	0.0859
in ethanol, 297 K	0.104
in ethanol, 301.15 K	0.135
in ethanol, 304.55 K	0.168
in ethanol, 310.05 K	0.234
in ethanol, 314.65 K	0.321
in n-butanol, 282.55 K	0.0555
in n-butanol, 288.55 K	0.0724
in n-butanol, 293.35 K	0.0897
in n-butanol, 299 K	0.117
in n-butanol, 303.95 K	0.155
in n-butanol, 307.95 K	0.201
in n-butanol, 311.75 K	0.257
in n-butanol, 314.95 K	0.328
in n-butanol, 317.35 K	0.389
in n-butanol, 318.15 K	0.408
in n-heptane, 288.75 K	0.0133
in n-heptane, 293.15 K	0.0163
in n-heptane, 296.95 K	0.0198
in n-heptane, 301.8 K	0.0239
in n-heptane, 302.4 K	0.0245
in n-heptane, 306.55 K	0.0305
in n-heptane, 312.05 K	0.0404
in n-heptane, 317.15 K	0.056
in n-heptane, 322.05 K	0.079
in n-heptane, 326.05 K	0.115
in n-heptane, 328.45 K	0.166
in n-heptane, 329.25 K	0.214
in n-hexane, 283.75 K	0.0082
in n-hexane, 289.25 K	0.0107
in n-hexane, 295.55 K	0.0141
in n-hexane, 299.25 K	0.0175
in n-hexane, 305.2 K	0.0242
in n-hexane, 310.6 K	0.032
in n-hexane, 311.45 K	0.0339
in n-hexane, 314.8 K	0.0414
in n-hexane, 319.05 K	0.0529
in n-hexane, 323.45 K	0.0716
